From patent publication US20050065218A1, “Utilization of alverine, alone or in combination with tricyclic antidepressant or a specific serotonin reuptake inhibitor for the treatment of depression” (priority 2003, published 2005)
Several values for one entry are separate records, joined by “and”; a condition that tells them apart may be missing. Identical values can stand only once. Entries after “also recorded” stand apart in the source; their conditions may differ. Counter-ions that a name gives are not always drawn.

Assays:
Format in all cases: in vivo
Swiss mice CD1 [1] = assay: forced swim test, Alverine and imipramine administered intraperitoneally to mice (Example 3, first test); parameters: key to Dunnett test vs control group: * indicates a significant difference for p < 0.05 (Dunnett test); ns indicates an insignificant result; details: for immobility time, individual animals / immobility time, Mean: 30 minutes prior to the test; for immobility time, Mean: n = 10
Experimental: These are Swiss mice CD1 (CD-1® (ICR) IGS (Charles River France) weighing between 25 and 35 g. […] They are placed 15 to 20 per cage, over an acclimatising period of at least 5 days prior to the tests. They are identified by marking on the fur. […] The mice were divided into two test comprising six groups of 10 mice each. For the first test: The first group is the control group: it is treated only by excipient. The second group is treated with imipramine at a dose of 3 mg/kg The third group is treated with Alverine at a dose of 3 mg/kg The fourth group is treated with Alverine at a dose of 3 mg/kg and imipramine at a dose of 3 mg/kg The fifth group is treated with imipramine at a dose of 10 mg/kg […] The doses are expressed in terms of free active substances. The test substances are prepared extemporaneously in a saline solution. The treatments are co-administered 30 minutes prior to the test in a coded and random order intraperitoneally with a volume of 10 ml/kg (5 ml/kg for each administration). Thirty minutes following administration the six groups of mice are subjected to the forced swim test, in a vertical Plexiglas cylinder (height 24 cm, diameter 9 cm) containing water (height 6 cm, temperature 18-22° C.). The total duration of immobility is measured over the last four minutes of the test, six minutes in total. A mouse is deemed immobile when it ceases struggling and floats in the water without movements superfluous to those allowing it to keep its head above water. A drop in immobility time is the reflection of an antidepressant effect. The forced swim test is a pre-clinical behavioural model, which has good predictive validity and is widely employed for determining the efficacy of antidepressant medications (Borsini and Meli, 1988). The results are expressed in total duration of immobility in seconds and as a percentage of variation of the total duration of immobility calculated from the average value of the control group. The statistical significance between two treated groups is determined by using a Student test (P<0.05) The data are analysed using <<SigmaStat>> software.

Swiss mice CD1 [2] = assay: forced swim test, Alverine administered orally to mice (Example 2); parameters: key to Dunnett test vs control group: * indicates a significant difference for p < 0.05 (Dunnett test); ns indicates an insignificant result; details: for immobility time, individual animals / immobility time, Mean: 60 minutes prior to the test; for immobility time, Mean: N = 10
Swiss mice CD1 [3] = assay: observation of secondary effects in mice treated orally (Example 2); details: treated orally, 10, 30, 100 mg/kg
Swiss mice CD1 [4] = assay: forced swim test, Alverine administered intraperitoneally to mice (Example 1); parameters: key to Dunnett test vs control group: * indicates a significant difference for p < 0.05 (Dunnett test); ns indicates an insignificant result; details: for immobility time, individual animals / immobility time, Mean: 30 minutes prior to the test; for immobility time, Mean: N = 10
Experimental: To establish the advantages according to the present invention a study was carried out to 50 mice. They were divided into 5 groups of 10 mice each. These are Swiss mice CD1 (CD-1® (ICR) IGS (Charles River France) weighing between 25 and 35 g.
They were placed in a room at a temperature of between 19.5 and 24.5° C. and a relative humidity of 45 to 65% with a light/dark cycle of 12 h, ad libitum access to filtered water and pellets of laboratory-standard food.
They are placed 15 to 20 per cage, over an acclimatising period of at least 5 days prior to the tests. They are identified by marking on the fur.
The substance to be tested is Alverine citrate (Sigma, in the form of dry powder, with a salt/base ratio of 1.68) comparatively to imipramine chlorhydrate (Sigma, in the form of dry powder, with a salt/base ratio of 1.13).
The first group is the control group: it is treated only by excipient.
The second group is treated with Alverine at a dose of 3 mg/kg
The third group is treated with Alverine at a dose of 10 mg/kg
The fourth group is treated with Alverine at a dose of 30 mg/kg
The fifth group is treated with imipramine (tricyclic antidepressant) at a dose of 10 mg/kg
The doses are expressed in terms of free active substances. The substances are prepared extemporaneously in the excipient. The treatments are administered 30 minutes prior to the test in a coded and random order intraperitoneally with a volume of 10 ml/kg.
Thirty minutes following administration the five groups of mice are subjected to the forced swim test, in a vertical Plexiglas cylinder (height 24 cm, diameter 9 cm) containing water (height 6 cm, temperature 18-22° C.). The total duration of immobility is measured over the last four minutes of the test, six minutes in total. A mouse is deemed immobile when it ceases struggling and floats in the water without movements superfluous to those allowing it to keep its head above water. A drop in immobility time is the reflection of an antidepressant effect.
The forced swim test is a pre-clinical behavioural model, which has good predictive validity and is widely employed for determining the efficacy of antidepressant medications (Borsini and Meli, 1988).
The results are expressed in total duration of immobility in seconds and as a percentage of variation of the total duration of immobility calculated from the average value of the control group.
The statistical significance between the treated groups and the control group is determined by a Dunnett test using the residual variation according to analysis of the variance (P<0.05). The data are analysed using <<SigmaStat>> software.

[5] = Alverine 3 mg/kg intraperitoneally
[6] = Alverine 10 mg/kg intraperitoneally
[7] = Alverine citrate 10 mg/kg orally
[8] = Alverine citrate 30 mg/kg orally
[9] = Alverine citrate 100 mg/kg orally
[10] = Alverine citrate 3 mg/kg intraperitoneally
[11] = Alverine citrate 10 mg/kg intraperitoneally
[12] = Alverine citrate 30 mg/kg intraperitoneally

secondary effect (Swiss mice CD1 [3]): no secondary effect was observed
Compound: CCN(CCCc1ccccc1)CCCc1ccccc1 [Alverine citrate, N-ethyl-3,3′-diphenyldipropylamine]
% of variation of immobility time vs control group (Swiss mice CD1 [1]; [5]): −30%
Dunnett test vs control group (Swiss mice CD1 [1]; [5]): ns
immobility time, individual animals (Swiss mice CD1 [1]; [5]): 108 s and 134 s and 113 s and 65 s and 85 s and 73 s and 79 s and 125 s and 95 s and 140 s
immobility time, Mean (Swiss mice CD1 [1]; [5]): 101.7 s
% of variation of immobility time vs control group (Swiss mice CD1 [1]; [6]): −70%
Dunnett test vs control group (Swiss mice CD1 [1]; [6]): * (* indicates a significant difference for p < 0.05 (Dunnett test))
immobility time, individual animals (Swiss mice CD1 [1]; [6]): 28 s and 10 s and 1 s and 74 s and 22 s and 70 s and 69 s and 67 s and 42 s and 57 s
immobility time, Mean (Swiss mice CD1 [1]; [6]): 44.0 s
decrease in the duration of immobilisation as compared to the control group (in words) (Swiss mice CD1 [1]; tested alone at 3 mg/kg intraperitoneally): statistically insignificant decrease
% of variation of immobility time vs control group (Swiss mice CD1 [2]; [7]): −30%
Dunnett test vs control group (Swiss mice CD1 [2]; [7]): ns
immobility time, individual animals (Swiss mice CD1 [2]; [7]): 86 s and 95 s and 104 s and 111 s and 126 s and 108 s and 78 s and 115 s and 106 s and 113 s
immobility time, Mean (Swiss mice CD1 [2]; [7]): 104.2 s
% of variation of immobility time vs control group (Swiss mice CD1 [2]; [8]): −43%
Dunnett test vs control group (Swiss mice CD1 [2]; [8]): * (* indicates a significant difference for p < 0.05 (Dunnett test))
immobility time, individual animals (Swiss mice CD1 [2]; [8]): 104 sec and 80 sec and 64 sec and 70 sec and 105 sec (3×) and 41 sec and 63 sec and 113 sec
immobility time, Mean (Swiss mice CD1 [2]; [8]): 85.0 s
% of variation of immobility time vs control group (Swiss mice CD1 [2]; [9]): −60%
Dunnett test vs control group (Swiss mice CD1 [2]; [9]): * (* indicates a significant difference for p < 0.05 (Dunnett test))
immobility time, individual animals (Swiss mice CD1 [2]; [9]): 52 s and 129 s and 67 s and 6 s and 105 s and 75 s and 81 s and 5 s and 37 s and 32 s
immobility time, Mean (Swiss mice CD1 [2]; [9]): 58.9 s
antidepressant effect (in words) (Swiss mice CD1 [2]; administered orally, 10 to 100 mg/kg): antidepressant effect related to the dose; also recorded: significant antidepressant effect in mice
immobility time compared with mice treated at 10 mg/kg of imipramine (Swiss mice CD1 [4]; 10 mg/kg intraperitoneally): comparable
% of variation of immobility time vs control group (Swiss mice CD1 [4]; [10]): −15%
Dunnett test vs control group (Swiss mice CD1 [4]; [10]): ns
immobility time, individual animals (Swiss mice CD1 [4]; [10]): 128 s and 82 s and 151 s and 132 s and 127 s and 88 s and 85 s and 99 s and 93 s and 118 s
immobility time, Mean (Swiss mice CD1 [4]; [10]): 110.3 s
% of variation of immobility time vs control group (Swiss mice CD1 [4]; [11]): −53%
Dunnett test vs control group (Swiss mice CD1 [4]; [11]): * (* indicates a significant difference for p < 0.05 (Dunnett test))
immobility time, individual animals (Swiss mice CD1 [4]; [11]): 29 s and 86 s and 28 s and 30 s and 90 s and 99 s and 65 s and 129 s and 57 s and 3 s
immobility time, Mean (Swiss mice CD1 [4]; [11]): 61.6 s
% of variation of immobility time vs control group (Swiss mice CD1 [4]; [12]): −80%
Dunnett test vs control group (Swiss mice CD1 [4]; [12]): * (* indicates a significant difference for p < 0.05 (Dunnett test))
immobility time, individual animals (Swiss mice CD1 [4]; [12]): 97 sec and 3 sec and 66 sec and 36 sec and 0 sec and 15 sec and 7 sec (2×) and 16 sec and 12 sec
immobility time, Mean (Swiss mice CD1 [4]; [12]): 25.9 s
antidepressant effect (in words) (Swiss mice CD1 [4]; injected intraperitoneally, 3 to 30 mg/kg): antidepressant effect related to the dose; also recorded: significant antidepressant effect in mice and equal to that of Imipramine, at comparable doses
